{
  "source": "ChEMBL document CHEMBL5584347",
  "about": "“Development of Nitric Oxide Releasing Oxoisoaporphines with Antidepressant Activities by Simultaneously Regulating MAO-A and SERT” (J Med Chem, 2024)",
  "key": {"[1]": {"assay": "Toxicity in C57 mouse assessed as effect on spleen morphology at 5 to 10 mg/kg administered continuously for 2 weeks by H and E staining based analysis", "format": "organism-based", "conditions": "in vivo, 336 h, dose 5-10 mg/kg"}, "[2]": {"assay": "Toxicity in C57 mouse assessed as necrosis in heart at 5 to 10 mg/kg administered continuously for 2 weeks by H and E staining based analysis", "format": "organism-based", "conditions": "in vivo, 336 h, dose 5-10 mg/kg"}, "[3]": {"assay": "Toxicity in C57 mouse assessed as effect on liver morphology at 5 to 10 mg/kg administered continuously for 2 weeks by H and E staining based analysis", "format": "organism-based", "conditions": "in vivo, 336 h, dose 5-10 mg/kg"}, "[4]": {"assay": "Toxicity in C57 mouse assessed as effect on liver pathology at 5 to 10 mg/kg administered continuously for 2 weeks by H and E staining based analysis", "format": "organism-based", "conditions": "in vivo, 336 h, dose 5-10 mg/kg"}, "[5]": {"assay": "Toxicity in zebrafish embryo assessed as morphological changes at 0.1 to 10 uM administered with compound starting from 6 hours fertilization and measured at 48 to 120 hours post fertilization", "set-up": "species or system Danio rerio", "conditions": "in vivo, dose lower 0.1 µM, time lower 42 hrs, dose upper 10 µM, time upper 114 hrs"}, "Mus musculus [6]": {"system": "Mus musculus", "assay": "Antidepressant activity in chronic unpredictable mild stress induced depressive C57 mouse model assessed as reduction in MAO-A activity in brain at 5 to 10 mg/kg administered continuously for 2 weeks post 5 weeks of chronic unpredictable mild stress by colorimetric analysis", "format": "functional, organism-based", "conditions": "dose 5-10 mg/kg"}, "[7]": {"assay": "Toxicity in C57 mouse assessed as effect on lung structure at 5 to 10 mg/kg administered continuously for 2 weeks by H and E staining based analysis", "format": "organism-based", "conditions": "in vivo, 336 h, dose 5-10 mg/kg"}, "Mus musculus [8]": {"system": "Mus musculus", "assay": "Antidepressant activity in chronic unpredictable mild stress induced depressive C57 mouse model assessed as decrease in SERT expression in brain at 5 to 10 mg/kg administered continuously for 2 weeks post 5 weeks of chronic unpredictable mild stress by Western blot analysis", "format": "functional, organism-based", "conditions": "dose 5-10 mg/kg"}, "[9]": {"assay": "Cytotoxicity against human SH-SY5Y cells incubated for 24 hrs by MTT assay", "format": "toxicity, cell-based"}, "[10]": {"assay": "Toxicity in C57 mouse assessed as effect on heart pathology at 5 to 10 mg/kg administered continuously for 2 weeks by H and E staining based analysis", "format": "organism-based", "conditions": "in vivo, 336 h, dose 5-10 mg/kg"}, "Mus musculus [11]": {"system": "Mus musculus", "assay": "Upregulation of 5-HT level in mouse at 10 mg/kg", "format": "functional, organism-based"}, "[12]": {"assay": "Toxicity in C57 mouse assessed as effect in spleen pathology at 5 to 10 mg/kg administered continuously for 2 weeks by H and E staining based analysis", "format": "organism-based", "conditions": "in vivo, 336 h, dose 5-10 mg/kg"}, "Mus musculus [13]": {"system": "Mus musculus", "assay": "Antidepressant activity in chronic unpredictable mild stress induced depressive C57 mouse model assessed as increase in body weight at 5 to 10 mg/kg administered continuously for 2 weeks post 5 weeks of chronic unpredictable mild stress", "format": "functional, organism-based", "conditions": "dose 5-10 mg/kg"}, "Danio rerio [14]": {"system": "Danio rerio", "assay": "Antidepressant activity in reserpine-induced depressive zebrafish model assessed as increase in speed of movement at 0.5 to 1 uM preadministered with reserpine for 40 mins followed by compound administration and measured after 7 days by novel tank test", "format": "functional, organism-based", "conditions": "dose 0.5-1 µM, time 7.0 day"}, "Danio rerio [15]": {"system": "Danio rerio", "assay": "Antidepressant activity in reserpine-induced depressive zebrafish model assessed as increase in speed of movement at 0.5 to 1 uM preadministered with reserpine for 40 mins followed by compound administration and measured after 7 days by open field test", "format": "functional, organism-based", "conditions": "dose 0.5-1 µM, time 7.0 day"}, "[16]": {"assay": "Toxicity in C57 mouse assessed as effect on heart morphology at 5 to 10 mg/kg administered continuously for 2 weeks by H and E staining based analysis", "format": "organism-based", "conditions": "in vivo, 336 h, dose 5-10 mg/kg"}, "[17]": {"assay": "Cytotoxicity against human L02 cells incubated for 24 hrs by MTT assay", "format": "toxicity, cell-based"}, "Danio rerio [18]": {"system": "Danio rerio", "assay": "Antidepressant activity in reserpine-induced depressive zebrafish model assessed as increase in total distance traveled at 0.5 to 1 uM preadministered with reserpine for 40 mins followed by compound administration and measured after 7 days by open field test", "format": "functional, organism-based", "conditions": "dose 0.5-1 µM, time 7.0 day"}, "Mus musculus [19]": {"system": "Mus musculus", "assay": "Antidepressant activity in chronic unpredictable mild stress induced depressive C57 mouse model assessed as increase in movement at 5 to 10 mg/kg administered continuously for 2 weeks post 5 weeks of chronic unpredictable mild stress by open field test", "format": "functional, organism-based", "conditions": "dose 5-10 mg/kg"}, "[20]": {"assay": "Toxicity in C57 mouse assessed as necrosis in liver at 5 to 10 mg/kg administered continuously for 2 weeks by H and E staining based analysis", "format": "organism-based", "conditions": "in vivo, 336 h, dose 5-10 mg/kg"}, "Mus musculus [21]": {"system": "Mus musculus", "assay": "Antidepressant activity in chronic unpredictable mild stress induced depressive C57 mouse model assessed as increase in number of upright movements at 5 to 10 mg/kg administered continuously for 2 weeks post 5 weeks of chronic unpredictable mild stress by open field test", "format": "functional, organism-based", "conditions": "dose 5-10 mg/kg"}, "[22]": {"assay": "Toxicity in C57 mouse assessed as effect on kidney size at 5 to 10 mg/kg administered continuously for 2 weeks by H and E staining based analysis", "format": "organism-based", "conditions": "in vivo, 336 h, dose 5-10 mg/kg"}, "[23]": {"assay": "Toxicity in C57 mouse assessed as effect on liver structure at 5 to 10 mg/kg administered continuously for 2 weeks by H and E staining based analysis", "format": "organism-based", "conditions": "in vivo, 336 h, dose 5-10 mg/kg"}, "Mus musculus [24]": {"system": "Mus musculus", "assay": "Antidepressant activity in chronic unpredictable mild stress induced depressive C57 mouse model assessed as increase in nitric oxide content in brain at 5 to 10 mg/kg administered continuously for 2 weeks post 5 weeks of chronic unpredictable mild stress by absorbance based analysis", "format": "functional, organism-based", "conditions": "dose 5-10 mg/kg"}, "PC-12 [25]": {"system": "PC-12", "assay": "Neuroprotective activity against corticosterone-induced cell injury in rat PC-12 cells assessed as increase in cell viability at 0.1 to 1 uM incubated for 24 hrs by CCK8 assay", "format": "functional, cell-based", "conditions": "dose 0.1-1 µM"}, "[26]": {"assay": "Toxicity in C57 mouse assessed as necrosis in lungs at 5 to 10 mg/kg administered continuously for 2 weeks by H and E staining based analysis", "format": "organism-based", "conditions": "in vivo, 336 h, dose 5-10 mg/kg"}, "Mus musculus [27]": {"system": "Mus musculus", "assay": "Antidepressant activity in chronic unpredictable mild stress induced depressive C57 mouse model assessed as reduction in neuronal cell damage in hippocampus at 5 to 10 mg/kg administered continuously for 2 weeks post 5 weeks of chronic unpredictable mild stress by H and E staining based analysis", "format": "functional, organism-based", "conditions": "dose 5-10 mg/kg"}, "[28]": {"assay": "Toxicity in C57 mouse assessed as necrosis in spleen at 5 to 10 mg/kg administered continuously for 2 weeks by H and E staining based analysis", "format": "organism-based", "conditions": "in vivo, 336 h, dose 5-10 mg/kg"}, "Danio rerio [29]": {"system": "Danio rerio", "assay": "Antidepressant activity in reserpine-induced depressive zebrafish model assessed as increase in total distance traveled at 0.5 to 1 uM preadministered with reserpine for 40 mins followed by compound administration and measured after 7 days by novel tank test", "format": "functional, organism-based", "conditions": "dose 0.5-1 µM, time 7.0 day"}, "Mus musculus [30]": {"system": "Mus musculus", "assay": "Antidepressant activity in chronic unpredictable mild stress induced depressive C57 mouse model assessed as reduction in resting time at 5 to 10 mg/kg administered continuously for 2 weeks post 5 weeks of chronic unpredictable mild stress by forced swimming test", "format": "functional, organism-based", "conditions": "dose 5-10 mg/kg"}, "Mus musculus [31]": {"system": "Mus musculus", "assay": "Antidepressant activity in reserpine induced depressive mouse model assessed as 5-HT level in brain at 5 mg/kg preadministered with reserpine for 3 days followed by compound addition from day 4 to 10 by LC-MS analysis (reference value: 186.46 ng/ml)", "format": "functional", "conditions": "time 7 day"}, "PC-12 [32]": {"system": "PC-12", "assay": "Neuroprotective activity against corticosterone-induced cell injury in rat PC-12 cells assessed as increase in cell viability at 0.01 to 1 uM incubated for 24 hrs by CCK8 assay", "format": "functional, cell-based", "conditions": "dose 0.01-1 µM"}, "Mus musculus [33]": {"system": "Mus musculus", "assay": "Antidepressant activity in reserpine induced depressive mouse model assessed as 5-HT level in brain at 10 mg/kg preadministered with reserpine for 3 days followed by compound addition from day 4 to 10 by LC-MS analysis (reference value: 186.46 ng/ml)", "format": "functional", "conditions": "time 7 day"}, "Danio rerio [34]": {"system": "Danio rerio", "assay": "Antidepressant activity in reserpine-induced depressive zebrafish model assessed as reduction in immobility time at 0.5 to 1 uM preadministered with reserpine for 40 mins followed by compound administration and measured after 7 days by open field test", "format": "functional, organism-based", "conditions": "dose 0.5-1 µM, time 7.0 day"}},
  "note": "Active and inactive are the calls of the source. No cut-off for these calls is given here.",
  "data": [
    {"smiles": "O=C1c2ccccc2-c2nccc3cc(OCCCO[N+](=O)[O-])cc1c23", "values": [
      {"measurement": "Activity", "setting": "[1]", "result": "Non-Toxic"},
      {"measurement": "Activity", "setting": "[2]", "result": "Non-Toxic"},
      {"measurement": "Activity", "setting": "[3]", "result": "Non-Toxic"},
      {"measurement": "Activity", "setting": "[4]", "result": "Non-Toxic"},
      {"measurement": "Activity", "setting": "[5]", "result": "Non-Toxic"},
      {"measurement": "Activity", "setting": "Mus musculus [6]", "result": "Active"},
      {"measurement": "Activity", "setting": "[7]", "result": "Non-Toxic"},
      {"measurement": "Activity", "setting": "Mus musculus [8]", "result": "Active"},
      {"measurement": "IC50 at 24 h", "setting": "[9]", "result": "> 100", "unit": "µM"},
      {"measurement": "Activity", "setting": "[10]", "result": "Non-Toxic"},
      {"measurement": "Activity", "setting": "Mus musculus [11]", "result": "Active"},
      {"measurement": "Activity", "setting": "[12]", "result": "Non-Toxic"},
      {"measurement": "Activity", "setting": "Mus musculus [13]", "result": "Active"},
      {"measurement": "Activity", "setting": "Danio rerio [14]", "result": "Active"},
      {"measurement": "Activity", "setting": "Danio rerio [15]", "result": "Active"},
      {"measurement": "Activity", "setting": "[16]", "result": "Non-Toxic"},
      {"measurement": "IC50 at 24 h", "setting": "[17]", "result": "> 100", "unit": "µM"},
      {"measurement": "Activity", "setting": "Danio rerio [18]", "result": "Active"},
      {"measurement": "Activity", "setting": "Mus musculus [19]", "result": "Active"},
      {"measurement": "Activity", "setting": "[20]", "result": "Non-Toxic"},
      {"measurement": "Activity", "setting": "Mus musculus [21]", "result": "Active"},
      {"measurement": "Activity", "setting": "[22]", "result": "Non-Toxic"},
      {"measurement": "Activity", "setting": "[23]", "result": "Non-Toxic"},
      {"measurement": "Activity", "setting": "Mus musculus [24]", "result": "Active"},
      {"measurement": "Activity", "setting": "PC-12 [25]", "result": "Active"},
      {"measurement": "Activity", "setting": "[26]", "result": "Non-Toxic"},
      {"measurement": "Activity", "setting": "Mus musculus [27]", "result": "Active"},
      {"measurement": "Activity", "setting": "[28]", "result": "Non-Toxic"},
      {"measurement": "Activity", "setting": "Danio rerio [29]", "result": "Active"},
      {"measurement": "Activity", "setting": "Mus musculus [30]", "result": "Active"},
      {"measurement": "Activity", "setting": "Mus musculus [31]", "result": 508.39, "unit": "ng/mL"},
      {"measurement": "Activity", "setting": "PC-12 [32]", "result": "Active"},
      {"measurement": "Activity", "setting": "Mus musculus [33]", "result": 643.87, "unit": "ng/mL"},
      {"measurement": "Activity", "setting": "Danio rerio [34]", "result": "Active"}
    ]}
  ]
}
